Source: PubChem BioAssay (NCI)
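Compound exposure: 48 hours, 5 concentrations, 96-well plates. TGI is the concentration that stops growth completely.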

What was measured:
Experiment in all cases: NCI tumour cell line growth inhibition, 48 h
DMS 114 small cell lung = system: DMS 114 small cell lung
RXF-631 renal = system: RXF-631 renal
UACC-257 melanoma = system: UACC-257 melanoma
XF 498 CNS = system: XF 498 CNS
DLD-1 colon = system: DLD-1 colon
SNB-19 CNS = system: SNB-19 CNS
LXFL 529 NSCLC = system: LXFL 529 NSCLC
IGROV1 ovarian = system: IGROV1 ovarian
M19-MEL melanoma = system: M19-MEL melanoma
OVCAR-8 ovarian = system: OVCAR-8 ovarian
HOP-18 NSCLC = system: HOP-18 NSCLC
SNB-78 CNS = system: SNB-78 CNS
MALME-3M melanoma = system: MALME-3M melanoma
DMS 273 small cell lung = system: DMS 273 small cell lung
TK-10 renal = system: TK-10 renal
KM20L2 colon = system: KM20L2 colon
P388 leukemia = system: P388 leukemia
SN12K1 renal = system: SN12K1 renal
P388/ADR leukemia = system: P388/ADR leukemia

| Compound | TGI (DMS 114 small cell lung) [µM] | TGI (RXF-631 renal) [µM] | TGI (UACC-257 melanoma) [µM] | TGI (XF 498 CNS) [µM] | TGI (DLD-1 colon) [µM] | TGI (SNB-19 CNS) [µM] | TGI (LXFL 529 NSCLC) [µM] | TGI (IGROV1 ovarian) [µM] | TGI (M19-MEL melanoma) [µM] | TGI (OVCAR-8 ovarian) [µM] | TGI (HOP-18 NSCLC) [µM] | TGI (SNB-78 CNS) [µM] | TGI (MALME-3M melanoma) [µM] | TGI (DMS 273 small cell lung) [µM] | TGI (TK-10 renal) [µM] | TGI (KM20L2 colon) [µM] | TGI (P388 leukemia) [µM] | TGI (SN12K1 renal) [µM] | TGI (P388/ADR leukemia) [µM] |
| --- | --- | --- | --- | --- | --- | --- | --- | --- | --- | --- | --- | --- | --- | --- | --- | --- | --- | --- | --- |
| O=c1[nH]c(=O)n(C2CC(O)C(CO)O2)cc1C#Cc1cc(F)cc(F)c1 (stereo not given) | > 100 | > 100 | > 100 | > 100 | > 100 | > 100 | > 100 | > 100 | > 100 | > 100 | 83.2 | > 100 | > 100 | > 100 |  |  |  |  |  |
| CCOC(=O)NC(=O)c1cn(CCSCCOC(=O)NCCCCCCNC(=O)OCCSCCn2cc(C(=O)NC(=O)OCC)c(=O)[nH]c2=O)c(=O)[nH]c1=O | > 100 |  | > 100 |  | > 100 | > 100 |  | > 100 | > 100 | > 100 | > 100 | > 100 | > 100 | > 100 | > 100 | > 100 |  |  |  |
| CC1=NN(C(=O)Cc2ccccc2)C(=O)/C1=C\c1ccco1 | > 100 |  | > 100 | > 100 | > 100 | > 100 |  |  | > 100 | > 100 | > 100 | > 100 | > 100 | > 100 | > 100 |  |  |  |  |
| COc1ccc([C@@H]2CC(=O)NCCCCNCCCN2)cc1 | > 100 |  | > 100 | > 100 | > 100 | > 100 | > 100 | > 100 | > 100 | > 100 | > 100 | > 100 | > 100 | > 100 | > 100 | > 100 |  |  |  |
| S=C(Nc1ccccc1)N1N=C2c3ccccc3CC[C@H]2[C@@H]1c1ccccc1 | > 100 |  | > 100 | > 100 | > 100 | > 100 | > 100 | > 100 | > 100 | > 100 | > 100 | > 100 | > 100 |  | > 100 | > 100 |  |  |  |
| Cc1cc(NCCCCCCNc2cc(C)nc3ccc(Cl)cc23)c2cc(Cl)ccc2n1 | 36 | > 100 | 44.9 | 32 | 30.8 | 66.8 | > 100 |  | 43.4 | 39.1 |  | 56.8 | 75.6 | 42.1 | 62.1 | 32.4 |  |  |  |
| COc1cc(C=O)c(-c2cc3c(cc2C=O)OCO3)c(OC)c1OC | > 290 | > 290 | > 290 |  | > 290 | > 290 | > 290 | > 290 | > 290 | > 290 | > 290 |  | > 290 | > 290 | > 290 | 147 |  |  |  |
| CCNCCCCNCC | > 3750 |  | > 3750 | > 3750 | > 3750 | > 3750 |  | > 3750 | > 3750 | > 3750 | > 37.5 | > 3750 | > 3750 | > 3750 |  | > 3750 | > 3750 | > 3750 | > 3750 |
| CN1OC2OC(=O)OC2[C@H]1[C@H]1O[C@H](c2ccccc2)OC1(C)c1cc(OC(=O)c2ccccc2)ccc1OC(=O)c1ccccc1 (stereo not given in full) | > 50 | > 50 | > 50 | > 50 | > 50 | > 50 | > 50 | > 50 | > 50 | > 50 |  | > 50 | > 50 | > 50 | > 50 | > 50 |  |  |  |
| O=C(Nc1c(Cl)cc([N+](=O)[O-])cc1Cl)/C(=N\Nc1cccc(Cl)c1)c1c(O)c2ccccc2oc1=O | > 100 | > 100 | > 100 |  | > 100 | > 100 |  | > 100 | > 100 | > 100 |  |  | > 100 |  | > 100 | > 100 |  |  |  |
| C/C(=N/N)c1ccc2[nH]c3c(C)cc([N+](=O)[O-])c(C)c3c2c1 | 25.8 |  | 48.6 | 24.7 |  | 31.8 |  |  | 27.1 | 26.5 | 24 |  | 16.4 | 17.4 | 28.4 |  |  |  |  |
| COC(=O)NN1C(=O)C(=P(c2ccccc2)(c2ccccc2)c2ccccc2)C(C(=O)OC)=C1C | > 100 | > 100 |  |  |  | > 100 | > 100 | > 100 | > 100 | > 100 | > 100 | > 100 | > 100 | > 100 | > 100 | > 100 |  |  |  |
| O=C(c1ccccc1)c1c(CNCc2ccccc2)n(C(=O)c2ccccc2)c2ccccc12 | > 100 |  | > 100 | > 100 | > 100 | > 100 | > 100 | > 100 | > 100 | > 100 |  |  | > 100 | > 100 | > 100 | > 100 |  |  |  |
| COc1cc2c(cc1OC)C(Cc1c3ccccc3cc3ccccc13)N(C)CC2 (stereo not given) |  |  | 35.5 | 38.8 | > 100 | 52.4 |  | 65.4 | 49.8 | > 90.7 | 50.4 | > 73.1 |  | 74.1 |  | 40.5 | 47.6 | 30.3 | 35 |
| COc1cc2c(cc1O)C(C)Cc1cc3c(cc1N(C)CC2)OCO3 (stereo not given) | > 21.9 | > 59 | > 47.2 | 20.4 | 42.7 | > 87.4 | > 95.6 | 73.3 | > 40.8 | 37.5 | 90.9 | 42.3 | 20.1 | 13 | > 91.4 | 26.9 |  |  |  |
| CC[C@]12C=CCN3CCC4(c5cc([C@@]6(C(=O)OC)CC7CN(CCc8c6[nH]c6ccccc86)C[C@@H]6CCC[C@H]76)c(OC)cc5N(C)C4[C@](O)(C(=O)OC)C1OC(C)=O)C32 (stereo not given in full) | 1.01 |  | > 10 |  | > 10 | > 10 | > 10 | 7.31 | > 10 | > 4.81 |  | > 2.85 | > 5.04 |  | > 10 | 0.209 |  |  |  |
| O=C(CSc1nnc(-c2ccc(N=Cc3ccc(Cl)cc3)cc2)o1)Nc1cccc(Cl)c1 | > 100 |  | > 100 | > 100 |  | > 100 | > 100 |  | > 100 | > 100 | > 100 | > 100 | > 100 | > 100 | > 100 | > 100 |  |  |  |
| Cc1cc(N=Nc2ccc(N=Nc3c(O)c(S(=O)(=O)O)cc4cc(S(=O)(=O)O)ccc34)cc2C)ccc1N=Nc1ccc2cc(S(=O)(=O)O)cc(S(=O)(=O)O)c2c1 | > 100 |  | > 100 | > 100 | > 100 | > 100 |  | > 100 | > 100 | > 31.6 | > 100 | > 100 | > 100 | > 100 |  | > 100 | > 73.1 | > 100 | > 100 |
